“Also recorded” adds a separate entry of the source.
What was measured:
Dendra2-LC3 HEK cells = test: Optical pulse labeling: time-dependent decay of photoconverted (red, RFP/TRITC) Dendra2-LC3 as measure of autophagic flux; format: cell-based, human; set-up: key to Hit class in screen of Enzo Autophagy compound library (9H RFP/0H RFP): enhancer: [Sample9H RFP/OH RFP]<[DMSO9H RFP/OH RFP−3SDDMSO]; inhibitor: [Sample9H RFP/OH RFP]>[DMSO9H RFP/OH RFP 3SDDMSO]; details: for Effect on torin1-induced Dendra2-LC3 degradation: co-treatment with torin1; for Effect on torin1-induced Dendra2-LC3 degradation / Degradation (decay) of photoconverted Dendra2-LC3: red channel; for Dose dependence of effect on Dendra2-LC3 decay: increasing concentrations, RFP and GFP channels; for Degradation (decay) of photoconverted Dendra2-LC3: vs DMSO, Torin1 1 uM, Bafilomycin-A1 10 nM
Protocol: FIGS. 8A-E. Time dependent decay of Dendra2-LC3 as an assay of autophagic flux. (FIG. 8A) Dendra2-LC3 reporter cells were imaged prior to photoconversion to measure background TRITC intensity. Immediately following photoconversion with a 5 second pulse of […] light, cells were treated with DMSO, 1 uM Torin1, or 10 nM Bafilomycin-A1 and then were subsequently imaged at the indicated time points. Images are psuedocolored to better highlight intensity differences. (FIGS. 8B-E) Time dependent changes in photoconverted Dendra2-LC3 fluorescence in the TRITC (FIGS. 8B, D) and GFP (FIGS. 8C, E) channels. Gray boxes represent the pre and post-photoconversion time points. TRITC intensity values are normalized, setting the background intensity prior to conversion to 0 and the post-conversion value to 1. GFP values are normalized to the pre-conversion intensity. Error bars represent the SEM from three replicate experiments. […] (FIG. 8C) Following photoconversion there is a 40% drop in GFP intensity. As new Dendra2-LC3 is synthesized, GFP levels return to pre-photoconversion levels over the span of 13.5 hours. […] Cells were transfected with 20 nM ATG5 siRNA two days prior to imaging.
FIG. 9A-C. Evaluating the efficacy of known autophagy modulators. (FIG. 9A) An unbiased screen of the Enzo Autophagy compound library identified several known autophagy compounds as hits providing construct validity to the assay. Rapamycin, NVP-BEZ235 and AKT inhibitor X, were among the compounds appropriately identified as enhancers while Bafilomycin registered as an inhibitor. […] Cells were imaged in RFP to measure background fluorescence, then photoconverted with a 4 second DAPI exposure and immediately imaged again to establish the postconversion intensity. Drugs from the Enzo Autophagy library were added at a concentration of 10 uM via a robotic liquid handler. 9 hours later the cells were imaged again in order to assess the efficacy of the drugs. Hits were defined as follows: enhancer: [Sample9H RFP/OH RFP]<[DMSO9H RFP/OH RFP−3SDDMSO], inhibitor: [Sample9H RFP/OH RFP]>[DMSO9H RFP/OH RFP 3SDDMSO]. […] Imaging of the compound library was repeated in GFP. Intensity values are reported 15 hours after drug treatment. (FIG. 9C) The reduction in Dendra2-LC3 half-life observed upon treatment of autophagic flux enhancers is attenuated with partial knockdown of ATG5. Cells were transfected with 20 nM ATG5 siRNA 2 days prior to imaging. Error bars represent SEM from three replicate experiments.
Experiments were conducted during development of embodiments herein to develop a sensitive method—optical pulse labeling (OPL)—that takes advantage of the photoconvertible fluorescent protein Dendra2 for estimations of autophagic flux in cellulo (Refs 14, 34; herein incorporated by reference in their entireties) (FIG. 1b). […] Dendra2 was fused to LC3, a specific marker of autophagosomes and itself an autophagy substrate (Refs. 27, 31; herein incorporated by reference in their entireties). Following photoconversion, the time-dependent reduction in red LC3-Dendra2 (FIG. 1c) is used to calculate protein half-life, representing an estimate of autophagy flux for individual cells (Refs. 14, 34; herein incorporated by reference in their entireties) Furthermore, because LC3 is degraded as autophagosomes mature, the return to steady-state levels of green Dendra2-LC3 after photoconversion (FIG. 1d) reflects activity within the pathway as a whole. The assay is noninvasive, permitting longitudinal analyses of autophagy kinetics in living cells, and amenable to HTS.
For these studies the potent mTOR inhibitor torin1 (Ref. 36; herein incorporated by reference in its entirety) was selected as a positive control for autophagy induction, and the vacuolar ATPase inhibitor bafilomycin-A1 (Ref. 37; herein incorporated by reference in its entirety) as a positive control for autophagy inhibition. In each case, DMSO served as a vehicle (negative) control. […]

[1] = test system: ATG5-deficient Dendra2-LC3 HEK cells; test: Autophagic flux in Dendra2-LC3 HEK cells with ATG5 siRNA knockdown; format: cell-based, human; details: 20 nM ATG5 siRNA two days prior to imaging, red and green channels
Protocol: FIG. 6, panels a-c. Evaluation of autophagy-modifying compounds in ATG5-deficient cells. […] IB, immunoblot.
FIGS. 8A-E. Time dependent decay of Dendra2-LC3 as an assay of autophagic flux. (FIG. 8A) Dendra2-LC3 reporter cells were imaged prior to photoconversion to measure background TRITC intensity. Immediately following photoconversion with a 5 second pulse of […] light, cells were treated with DMSO, 1 uM Torin1, or 10 nM Bafilomycin-A1 and then were subsequently imaged at the indicated time points. Images are psuedocolored to better highlight intensity differences. (FIGS. 8B-E) Time dependent changes in photoconverted Dendra2-LC3 fluorescence in the TRITC (FIGS. 8B, D) and GFP (FIGS. 8C, E) channels. Gray boxes represent the pre and post-photoconversion time points. […]
The possibility that cell death and toxicity mimics the reduction in GFP intensity that would otherwise denote autophagy induction was also addressed. To avoid confounding from toxicity, the area occupied by cells in each image is calculated using ImageJ software and used as a proxy for cell number; since all wells received the same number of cells, >25% reductions in the area occupied by cells at the end of the experiment indicates toxicity. The formation of Dendra2-LC3 puncta in each condition is scored simultaneously using the ‘analyze particles’ function in ImageJ. […]

| SMILES | Hit class in screen of Enzo Autophagy compound library (9H RFP/0H RFP) (Dendra2-LC3 HEK cells; 10 uM, 9 hours after drug addition) | Effect on torin1-induced Dendra2-LC3 degradation (Dendra2-LC3 HEK cells; listed as BafilomycinA1) | Effect on torin1-induced Dendra2-LC3 degradation (Dendra2-LC3 HEK cells; listed as bafilomycin-A1) | Dose dependence of effect on Dendra2-LC3 decay (Dendra2-LC3 HEK cells) | Degradation (decay) of photoconverted Dendra2-LC3 (Dendra2-LC3 HEK cells; listed as bafilomycin) | Degradation (decay) of photoconverted Dendra2-LC3 (Dendra2-LC3 HEK cells; listed as bafilomycin-A1) | Degradation (decay) of photoconverted Dendra2-LC3 (Dendra2-LC3 HEK cells) | Effect of ATG5 knockdown on drug-induced autophagic flux [1] | Effect of ATG5 knockdown on drug-induced autophagic flux ([1]; listed as torin1) |
| --- | --- | --- | --- | --- | --- | --- | --- | --- | --- |
| CO/C1=C\C(C)=C\[C@@H](C)[C@@H](O)[C@@H](C)C/C(C)=C/C=C/[C@H](OC)[C@@H]([C@@H](C)[C@@H](O)[C@H](C)[C@@]2(O)C[C@@H](O)[C@H](C)[C@@H](C(C)C)O2)OC1=O [Bafilomycin-A1, bafilomycin-A1] | inhibitor | blocks induction by torin1 | completely blocked the effects of torin1 | similar, tunable response | extends it | slowed its clearance |  |  |  |
| CCC(=O)N1CCN(c2ccc(-n3c(=O)ccc4cnc5ccc(-c6cnc7ccccc7c6)cc5c43)cc2C(F)(F)F)CC1 [Torin1, torin1] |  |  |  | increased in a dose dependent manner |  |  | significantly accelerates Dendra2-LC3 degradation; also recorded: accelerates decay; also recorded: significantly enhanced Dendra2-LC3 degradation | attenuates the effects | attenuates the ability of torin1 to induce autophagic flux; also recorded: mitigated the autophagy-inducing effects |

From patent US10928381B2, “In vitro methods of monitoring autophagy in a human cell using a photoconvertable fluorescent protein linked biomarker” (The Regents of the University of Michigan, priority 2018, dated 2021)
